Data on four compounds can be found in patent US20100130459A1, “NEUROPROTECTIVE 7-BETA-HYDROXYSTEROIDS” (Hunter-Fleming Limited, priority 2000, published 2010).

Data set [1] deals with hippocampal CA1 pyramidal cells. Description: Global cerebral ischemia in rats (4 vessel occlusion), surviving CA1 neurons by Nissl staining. The class given is in vivo, male Wistar rats. The protocol:
Cerebral ischemia was induced by four-vessel-occlusion (4VO) in male Wistar rats (250-280 g). Both vertebral arteries were occluded by electrocauterization in pentobarbital anesthesia (60 mg/kg i.p.). The animals were allowed to recover for 24 hours with free access to water but not food. The next day the carotid arteries were exposed under 2% halothane in 30% oxygen/70% nitrous oxide anesthesia and were occluded for 10 minutes using microvascular claps. Subsequently, both clamps were removed and both arteries were inspected for immediate reperfusion. During the operation and the following 3 hours normothermia of the animals (37.5±0.5° C.) was maintained by using a thermostatically controlled heating blanket connected to a rectal thermometer. For control, in sham-operated animals both vertebral arteries were cauterized in pentobarbital anesthesia and both common carotid arteries were exposed but not clamped under 2% halothane in 30% oxygen/70% nitrous oxide anesthesia the following day. The wound was treated with lidocaine gel and then sutured. The animals were kept under a heating lamp at 30° C. environmental temperature until they regained consciousness.
Seven groups of animals were investigated: • 1. (n=8) steroid compound, 7β-OH EPIA (0.1 mg/kg, i. v. via tail vein, three injections: 15 minutes prior to the induction of ischemia, during ischemia and 5 minutes after reperfusion); • 2. (n=8) steroid compound, 7β-OH EPIA (0.3 mg/kg, i. v. three injections as described in 1.); • 3. (n=8) steroid compound, 7β-OH EPIA (1 mg/kg, i. v., three injections as described in 1.); • 4. (n=8) NBQX (disodium salt, because more water soluble) as reference substance and positive control (TOCRIS, Germany, 30 mg/kg, i. p., three injections as described in 1.); • 5. (n=8) received vehicle (0.9% NaCl, containing 100 μl Ethanol) three injections as described in 1.); • 6. (n=8) ischemia alone; • 7. (n=8) sham operated controls.
The substances were dissolved in 100 μl Ethanol and finally diluted with 0.9% NaCl.
After a survival time of 7 days after ischemia, all animals were perfusion fixed transcardially with 4% paraformaldehyde. The brains were then removed carefully and postfixed in the same fixative for 2 hours. After cryoprotection in 30% sucrose, the brains were rapidly frozen in isopentane and stored at −80° C. Twenty-micrometer cryostat sections comprising the hippocampal formation were Niss1 stained with toluidine blue or NeuroTrace fluorescence.
The severity of neuronal damage in the hippocampal CA1 region after ischemia was evaluated by the number of surviving neurons using Niss1 staining. The mean number of morphologically intact neurons per 400 μm length was calculated in CA1 region for each group. Cell counting was performed in 3-5 serial sections per animal and 6 times 400 μm CA1 area per section using a light microscope equipped with a 20× objective. The data were statistically analyzed by paired Student's t-test. Data were presented as mean±SEM.

For data set [2], the system named is Organotypic hippocampal slice cultures (CA1 cell layer). Description: Hypoxic neuronal damage in organotypic hippocampal slice cultures (PI fluorescence in CA1). The class given is cell-based, Wistar rat. The protocol:
Organotypic hippocampal slice cultures were prepared using the basic method of Pringle et al (1996, 1997) modified as follows:
Wistar rat pups (8-11 days old) were decapitated and the hippocampus rapidly dissected into ice-cold Gey's balanced salt solution supplemented with 4.5 mg/ml glucose. Slices were separated and plated onto Millicell CM culture inserts (4 per well) and maintained at 37′C./5% CO2 for 14 days. Maintenance medium consisted of 25% heat-inactivated horse serum, 25% Hank's balanced salt solution (HBSS) and 50% minimum essential medium with added Earle's salts (MEM) supplemented with 1 mM glutamine and 4.5 mg/ml glucose. Medium was changed every 3-4 days.
Experimental hypoxia was performed as described previously (Pringle e al., 1996; 1997). Briefly, cultures were transferred to serum free medium (SFM—75% MEM, 25% HBSS supplemented with 1 mM glutamine and 4.5 mg/ml glucose) containing 5 μg/ml of the fluorescent exclusion dye propidium iodide (PI). Cultures were allowed to equilibrate in SFM for 60 minutes prior to imaging. PI fluorescence was detected using a Leica inverted microscope fitted with a rhodamine filter set. Any cultures in which PI fluorescence was detected at this stage were excluded from further study. Hypoxia was induced by transferring cultures to SEM (+PI) which had been saturated with 95% N2/5% CO2. Culture plates (without lids) were then sealed into an airtight chamber in which the atmosphere was saturated with 95% N2/5% CO2 by continuously blowing through gas at 10 L/min for ten minutes before being sealed and placed in the incubator for 170 mins (total time of hypoxia was therefore 180 mins). At the end of the hypoxic period cultures were returned to normoxic SFM containing PI and placed back in the incubator for 24 hours.
Neuronal damage was assessed as described previously (Pringle et al., 1996; 1997) using either NIH Image 1.60 running on an Apple IIsi computer or OpenLab 2.1 (Improvision) running on a Macintosh G4/400. Images were captured using a monochrome camera and saved onto optical disk for offline analysis. Light transmission images were captured prior to the addition of drugs, and PI fluorescence images recorded at the end of the 24-hour post-hypoxia recovery period. The area of the CA1 cell layer was determined from the transmission image. The area of PI fluorescence in CA1 was measured using the density slice function within NIH Image or OpenLab, and neuronal damage expressed as the percentage of the CA1 in which PI fluorescence was detected above background.
Steroid compounds were prepared by making an initial 1 mg/ml solution in ethanol and further diluting down in SFM. Compounds were added to the cultures for 45 minutes prior to hypoxia, during the hypoxic episode and during the post-hypoxic recovery period. Control experiments consisted of cultures treated with vehicle alone.

The mark [3] stands for this setting: 30 mg/kg, three injections, 10 min global ischemia, 7 days survival.
The mark [4] stands for this setting: Experiment 1, 100 nM pre-, during and post-hypoxia.
Where [5] appears, read: Experiment 1, 100 nM present pre-, during and post-hypoxia, control hypoxia 25.5 ± 6.4.

Regarding `NS(=O)(=O)c1cccc2c1c([N+](=O)[O-])cc1nc(O)c(O)nc12` [NBQX, 2,3-dihydroxy-6-nitro-7-sulfamoyl-benzo(F)quinoxaline, reference compound], in data set [1] (30 mg/kg, three injections), the “Neuroprotection in CA1 pyramidal cells compared to the ischemia group (in words, t-test)” value was “significant (p=0.03) neuroprotection”. Besides, in data set [1] (setting [3]), the “Neuroprotection compared to the ischemia alone” value was determined as 47.5% and the “Protective effect compared to the sham operated animals” value worked out at 68.5%.

In the case of `C[C@]12CC[C@H](O)C[C@@H]1C[C@H](O)[C@@H]1[C@@H]2CC[C@]2(C)C(=O)CC[C@@H]12` [Example 7βOH-EPIA, 7β-hydroxyepiandrosterone], the “Reduction of hypoxic damage in CA1 (in words)” value in data set [2] (setting [4]) is “significantly reduced”. In addition, the “% Damage in CA1” value was found to be 9.0 ± 4.7 % in data set [2] (setting [5]); 20.6 ± 7.2% in data set [2] (Experiment 2, 1 nM, control hypoxia 31.9 ± 4.7); 11.9 ± 4.7 % in data set [2] (Experiment 2, 10 nM, control hypoxia 31.9 ± 4.7); 14.3 ± 5.0 % in data set [2] (Experiment 2, 100 nM, control hypoxia 31.9 ± 4.7). Moreover, the “Neuroprotection against hypoxia (in words)” value in data set [2] (Experiment 2, 1 nM) is recorded as “activity was lost”; in data set [2] (Experiment 2, 10 nM and 100 nM), “significantly neuroprotective”. Besides, the “Neuroprotective effect (in words, t-test)” value in data set [1] (0.1 mg/kg (p=0.01) and 0.3 mg/kg (p=0.0008) i.v.) is “highly significant neuroprotective effect”. For the same compound, the “Neuroprotective effect on CA1 pyramidal cells compared to the sham operated group (FIG. 1C)” value in data set [1] (0.1 mg/kg i.v., three injections, 10 min global ischemia, 7 days survival) is on record as 74.8%; in data set [1] (0.3 mg/kg i.v., three injections, 10 min global ischemia, 7 days survival) it was 83.9%. The “Neuroprotection of CA1 pyramidal cells (in words)” value in data set [1] (1.0 mg/kg i.v., three injections) is recorded as “only a tendency to neuroprotection, but the effect was not significant”. In addition, the “Behavioral abnormalities of the animals” value in data set [1] (injected i.v. prior, during and after ischemia, all experiments) is “never observed any behavioral abnormalities”.

For the compound `C[C@]12CC[C@H](O)CC1=C[C@H](O)[C@@H]1[C@@H]2CC[C@]2(C)C(=O)CC[C@@H]12` [Example 7βOH-DHEA, 7β-hydroxy-DHEA], in data set [2] (Experiment 3, 100 nM pre-, during and post-hypoxia), the “Reduction in neuronal damage (in words)” value is “large, highly significant, reduction in neuronal damage”. Moreover, the “% Damage in CA1” value in data set [2] (Experiment 3, 100 nM pre-, during and post-hypoxia, control hypoxia 29.0 ± 6.2) was determined as 4.2 ± 1.9 %.

Regarding `C[C@]12CC[C@H](O)C[C@@H]1C[C@@H](O)[C@@H]1[C@@H]2CC[C@]2(C)C(=O)CC[C@@H]12` [Example 7αOH-EPIA, 7α-Hydroxy-EPIA], the “Reduction of hypoxic damage in CA1 (in words)” value in data set [2] (setting [4]) was “significantly reduced”. Further, the “% Damage in CA1” value in data set [2] (setting [5]) came out at 4.0 ± 2.9 %.
